# Where two headings read alike, the source gives them in different places.
# Tests used:
# FIH = molecular target: T1, FIH (Homo sapiens, UniProt Q9NWT6); test: SPE-MS FIH inhibition assay; assay type: biochemical; conditions: for reduction of FIH inhibition compared to 4: IC50 comparison with compound 4
# T1 construct: made in house
# Description: (§1) Protein production and purification
# (§2) PAGE analysis) according to established procedures.
# (§3) FIH, PHD2, AspH, JMJD5 and KDM4A inhibition assays
# (§4) The in vitro FIH,1, 2 PHD2,1 AspH,38 JMJD536 and KDM4A39 inhibition assays were performed as […]
# (§5) KDM4A). Synthetic peptide substrates were used: HIF-1α C-terminal transactivation domain fragment […]
# (§6) H3Lys9 bearing three methyl groups at the N ϵ position, H3Lys4 substituted by an Ala and H3Lys14 substituted by an Ile residue) for KDM4A.39 Peptides were prepared as C-terminal amides by GL Biochem (Shanghai) Ltd. Peptide hydroxylation in the case of FIH, PHD2, AspH and JMJD5 (+16 Da mass shift) or peptide demethylation in the case of KDM4A ( -14 Da mass shift) was monitored by SPE-MS. […]
# AspH = AspH (Homo sapiens, UniProt Q12797); test: biochemical
# Chain of AspH (Q12797 315-758): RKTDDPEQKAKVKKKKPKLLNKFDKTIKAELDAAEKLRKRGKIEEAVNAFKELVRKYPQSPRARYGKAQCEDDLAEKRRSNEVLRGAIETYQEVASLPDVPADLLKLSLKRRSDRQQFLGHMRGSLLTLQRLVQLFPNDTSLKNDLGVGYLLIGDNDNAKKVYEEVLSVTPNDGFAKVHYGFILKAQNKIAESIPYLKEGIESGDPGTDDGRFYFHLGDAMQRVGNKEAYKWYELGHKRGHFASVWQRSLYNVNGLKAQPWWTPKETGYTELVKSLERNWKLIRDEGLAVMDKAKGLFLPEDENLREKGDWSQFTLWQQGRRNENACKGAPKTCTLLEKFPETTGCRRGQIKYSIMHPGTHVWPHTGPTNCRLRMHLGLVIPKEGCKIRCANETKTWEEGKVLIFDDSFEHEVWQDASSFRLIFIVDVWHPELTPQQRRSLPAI
# Description: (§7) To investigate the potential of BNS for selective FIH inhibition, its selectivity was investigated with respect to other 2OG-dependent protein oxidising enzymes, that is PHD2, Jumonji-C domain-containing protein 5 (JMJD5), aspartate/asparagine-β-hydroxylase (AspH) and KDM4A, using reported SPE-MS inhibition assays.[58,61,69,70] In addition to PHD2 and KDM4A, we included AspH and JMJD5 in our selectivity studies, because AspH, like FIH, catalyses protein aspartate- and asparagine-residue hydroxylation (although in epidermal growth factor-like domains),[71,72] and because JMJD5 is structurally closely related to FIH.[73,74]
# (§8) 3. Biochemical procedures
# as §1, §2, §3, §4, §5, §6
# JMJD5 = JMJD5 (Homo sapiens, UniProt Q8N371); test: biochemical; conditions: read-out: JMJD5 IC50
# Chain of JMJD5 (Q8N371 whole entry): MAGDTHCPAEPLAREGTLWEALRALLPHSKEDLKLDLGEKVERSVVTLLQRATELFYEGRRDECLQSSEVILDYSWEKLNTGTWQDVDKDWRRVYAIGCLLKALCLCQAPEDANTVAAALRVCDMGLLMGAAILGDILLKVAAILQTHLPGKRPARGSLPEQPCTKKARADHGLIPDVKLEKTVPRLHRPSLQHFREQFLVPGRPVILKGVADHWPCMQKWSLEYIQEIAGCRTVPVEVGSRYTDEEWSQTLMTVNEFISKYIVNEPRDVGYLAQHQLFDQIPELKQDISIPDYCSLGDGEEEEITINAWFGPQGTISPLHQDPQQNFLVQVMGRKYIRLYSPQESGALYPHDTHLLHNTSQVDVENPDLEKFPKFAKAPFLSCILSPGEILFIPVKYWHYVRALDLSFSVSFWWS
# Description: as §7, §8, §1, §2, §3, §4, §5, §6
# KDM4A = KDM4A (Homo sapiens, UniProt O75164); test: biochemical; assay type: biochemical
# Chain of KDM4A (O75164 1-359): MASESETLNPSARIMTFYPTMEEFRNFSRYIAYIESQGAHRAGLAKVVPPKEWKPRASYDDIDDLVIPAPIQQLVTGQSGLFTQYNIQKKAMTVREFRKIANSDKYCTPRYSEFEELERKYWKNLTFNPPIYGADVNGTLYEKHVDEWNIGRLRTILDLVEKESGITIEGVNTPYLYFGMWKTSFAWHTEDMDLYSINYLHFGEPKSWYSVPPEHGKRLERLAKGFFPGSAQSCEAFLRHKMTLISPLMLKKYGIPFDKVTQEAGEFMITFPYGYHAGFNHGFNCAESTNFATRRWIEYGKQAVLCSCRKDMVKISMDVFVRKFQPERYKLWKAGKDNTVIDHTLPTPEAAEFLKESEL
# Description: as §7, §8, §1, §2, §3, §4, §5, §6
# PHD2 = PHD2 (Homo sapiens, UniProt Q9GZT9); test: biochemical
# Chain of PHD2 (Q9GZT9 181-426): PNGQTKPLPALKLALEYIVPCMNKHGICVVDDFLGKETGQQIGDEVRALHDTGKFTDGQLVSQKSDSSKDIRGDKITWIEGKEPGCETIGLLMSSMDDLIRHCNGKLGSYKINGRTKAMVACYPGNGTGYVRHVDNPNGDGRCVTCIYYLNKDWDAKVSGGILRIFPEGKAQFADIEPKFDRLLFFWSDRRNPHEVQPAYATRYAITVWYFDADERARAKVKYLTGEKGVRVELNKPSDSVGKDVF
# Description: as §8, §1, §2, §3, §4, §5, §6
# T1 sequence (Q9NWT6 whole entry): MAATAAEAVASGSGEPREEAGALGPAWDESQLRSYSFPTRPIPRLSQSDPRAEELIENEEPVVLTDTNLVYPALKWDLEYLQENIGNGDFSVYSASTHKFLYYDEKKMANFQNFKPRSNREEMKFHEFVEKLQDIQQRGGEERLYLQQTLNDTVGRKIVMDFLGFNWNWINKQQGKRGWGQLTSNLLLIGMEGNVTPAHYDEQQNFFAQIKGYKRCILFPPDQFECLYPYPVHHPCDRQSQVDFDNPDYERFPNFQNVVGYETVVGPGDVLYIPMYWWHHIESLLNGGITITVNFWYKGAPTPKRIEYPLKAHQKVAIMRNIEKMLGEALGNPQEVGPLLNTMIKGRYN
Compound,melting point [°C],IC50 (FIH) [nM],IC50 (AspH) [µM],IC50 (JMJD5) [µM],IC50 (KDM4A) [µM],reduction of FIH inhibition compared to 4 (FIH) [fold],IC50 (PHD2) [µM],"IC50 (FIH; 0.15 μM FIH, 10.0 μM 2OG, 5.0 μM HIF-1α C-TAD788–822, SPE-MS, read-out: FIH IC50) [nM]",AspH inhibition potency relative to 4 (more potent) (AspH; IC50 comparison with compound 4) [fold]
Cc1s/c(=N\C(=O)CS(=O)(=O)c2ccccc2)n(O)c1CC(=O)O (hydrate or solvate) [compound 7],181 to 182,–,–,–,–,–,–,–,–
O=C(O)Cc1cs/c(=N\C(=O)CNC(=O)c2ccccc2)n1O [compound 16],–,1200 ± 200,2.4 ± 1.1,1.7 ± 0.3,> 100,–,–,–,–
CC(=O)/N=c1\scc(CC(=O)O)n1O [compound 14],–,52400 ± 30400,> 100,3.2 ± 0.7,> 100,> 200,> 100,–,–
O=C(O)Cc1csc(=NC(=O)C2CCN(S(=O)(=O)c3ccccc3Cl)C2)n1O (centres unmarked) [compound 33],–,390 ± 40,30.3 ± 12.6,11.9 ± 1.8,> 100,–,8 ± 0.2,–,–
O=C(O)Cc1cs/c(=N\C(=O)C2CCCN2S(=O)(=O)c2ccccc2)n1O (centres unmarked) [compound 28],–,2100 ± 1500,24.9 ± 12,2.6 ± 0.2,> 100,–,12.7 ± 1.8,–,–
O=C(O)Cc1cs/c(=N\C(=O)CS(=O)(=O)c2ccccc2)n1O (hydrate or solvate) [compound 4],179 to 181,–,–,–,–,–,–,–,–
"O=C(O)CNC(=O)c1c(O)c2cc(F)ccc2n(CCC2CC2)c1=O [GSK360A, reference compound]",–,–,–,–,–,–,–,> 100000,–
O=C(O)Cc1csc(=NC(=O)C2CCN(S(=O)(=O)c3cccc(Cl)c3)C2)n1O (centres unmarked) (hydrate or solvate) [compound 34],178 to 182,–,–,–,–,–,–,–,–
O=C(O)Cc1csc(=NC(=O)C2CCN(S(=O)(=O)c3ccc(C(F)(F)F)cc3)C2)n1O (centres unmarked) [compound 37],–,470 ± 70,36 ± 0.7,63.2 ± 6.1,> 100,–,15.2 ± 3.6,–,–
O=C(O)Cc1csc(=NC(=O)C2CCN(S(=O)(=O)c3ccc4ccccc4c3)C2)n1O (centres unmarked) (hydrate or solvate) [compound 40],181 to 184,–,–,–,–,–,–,–,–
O=C(O)Cc1cs/c(=N\C(=O)CCC(=O)Nc2ccccc2)n1O [compound 18],–,6000 ± 1200,3.7 ± 1.5,8.4 ± 2.7,> 100,–,2.3 ± 0.1,–,–
O=C(CS(=O)(=O)c1ccccc1)/N=c1\scc(Cn2ccnn2)n1O [compound 12],–,> 100000,83.3 ± 6.7,> 100,> 100,–,> 100,–,–
O=C(O)Cc1csc(=NC(=O)C2CCN(S(=O)(=O)c3cccs3)C2)n1O (centres unmarked) (hydrate or solvate) [compound 41],178 to 180,–,–,–,–,–,–,–,–
C[C@@H]1CN(S(=O)(=O)c2ccccc2)C[C@H]1C(=O)/N=c1\scc(CC(=O)O)n1O (relative stereo) [compound 30],–,1700 ± 400,> 100,25.6 ± 0.6,> 100,–,71.7 ± 26.6,–,–
O=C(O)CCc1cs/c(=N\C(=O)CS(=O)(=O)c2ccccc2)n1O [compound 13],–,2200 ± 600,47.3 ± 4.7,> 100,> 100,~10,–,–,–
COC(=O)Cc1cs/c(=N\C(=O)CS(=O)(=O)c2ccccc2)n1O [compound 9],–,> 100000,96.7 ± 3.2,> 100,> 100,–,> 100,–,–
O=C(O)Cc1cs/c(=N\C(=O)CS(=O)(=O)Nc2ccccc2)n1O [compound 21],–,360 ± 210,0.76 ± 0.1,2.8 ± 0.9,> 100,–,0.57 ± 0.18,–,~5
O=C(O)Cc1csc(=NC(=O)C2CCN(S(=O)(=O)c3cccc(Cl)c3)C2)n1O (centres unmarked) [compound 34],–,440 ± 30,35,18.5 ± 1,> 100,–,14.6 ± 3.2,–,–
Cc1s/c(=N\C(=O)CS(=O)(=O)c2ccccc2)n(O)c1CC(=O)O [compound 7],–,36700 ± 4900,24.3 ± 12.3,> 100,> 100,> 100,–,–,–
O=C(O)Cc1csc(NC(=O)CS(=O)(=O)c2ccccc2)n1 [compound 5],–,> 100000,> 100,> 100,> 100,–,> 100,–,–
